Experimental data from patent publication US7754880B2, “Uracils having a herbicidal activity” (Isagro Ricerca S.r.l., priority 2002, dated 2010).

Structure (SMILES) | melting point
CC(C)Cc1csc(-c2cc(-n3c(=O)cc(C(F)(F)F)n(C)c3=O)c(Cl)cc2Cl)n1 [Compound No 129, 3-[2,4-dichloro-5-(4-isobutyl-1,3-thiazol-2-yl)phenyl]-1-methyl-6-(trifluoromethyl) 2,4(1H,3H)-pyrimidinedione] | 167 °C
Cn1nnc(COc2cc(-n3c(=O)cc(C(F)(F)F)n(C)c3=O)c(F)cc2Cl)n1 [Compound No 42, 3-{4-chloro-2-fluoro-5-[(2-methyl-2H-tetrazol-5-yl)methoxy]phenyl}-1-methyl-6-(trifluoromethyl)-2,4(1H,3H)-pyrimidinedione] | 167 °C
CC(C)c1cc(COc2cc(-n3c(=O)cc(C(F)(F)F)n(C)c3=O)c(F)cc2Cl)on1 [Compound No 133, 3-{4-chloro-2-fluoro-5-[(3-isopropylisoxazol-5-yl)methoxy]phenyl}-1-methyl-6-(trifluoromethyl)-2,4(1H,3H)-pyrimidinedione] | 128 °C
COC(=O)Cn1nnc(-c2cc(-n3c(=O)cc(C(F)(F)F)n(C)c3=O)ccc2Cl)n1 [Compound No 17, methyl (5-{2-chloro-5-[1,2,3,6-tetrahydro-3-methyl-2,6-dioxo-4-(trifluoromethyl)pyrimidin-1-yl]phenyl}-2H-tetrazol-2-yl)acetate] | 172 °C
CCn1nnnc1-c1cc(-n2c(=O)cc(C(F)(F)F)n(C)c2=O)ccc1Cl [Compound No 16, 3-[4-chloro-3-(1-ethyl-1H-tetrazol-5-yl)phenyl]-1-methyl-6-(trifluoromethyl)-2,4(1H,3H)-pyrimidinedione] | 202 °C
CCOC(=O)c1csc(-c2cc(-n3c(=O)cc(C(F)(F)F)n(C)c3=O)ccc2Cl)n1 [Compound No 156, ethyl 2-{2-chloro-5-[1,2,3,6-tetrahydro-3-methyl-2,6-dioxo-4-(trifluoromethyl)pyrimidin-1-yl]phenyl}-1,3-thiazole-4-carboxylate] | 197 °C
CCCCn1nnc(-c2cc(-n3c(=O)cc(C(F)(F)F)n(C)c3=O)ccc2Cl)n1 [Compound No 157, 3-[3-(2-butyl-2H-tetrazol-5-yl)-4-chlorophenyl]-1-methyl-6-(trifluoromethyl)-2,4(1H,3H)-pyrimidinedione] | 108 °C
Cn1c(C(F)(F)F)cc(=O)n(-c2cc(OCc3cc(C(C)(C)C)no3)c(Cl)cc2F)c1=O [Compound No 132, 3-{5-[(3-tert-butylisoxazol-5-yl)methoxy]-4-chloro-2-fluorophenyl}-1-methyl-6-(trifluoromethyl)-2,4(1H,3H)-pyrimidinedione] | 142 °C
Cn1c(C(F)(F)F)cc(=O)n(-c2ccc(Cl)c(-c3nc4ccccc4s3)c2)c1=O [Compound No 113, 3-[3-(1,3-benzothiazol-2-yl)-4-chlorophenyl]-1-methyl-6-(trifluoromethyl)-2,4(1H,3H)-pyrimidinedione] | 189 °C
C=CCn1nnc(-c2cc(-n3c(=O)cc(C(F)(F)F)n(C)c3=O)ccc2Cl)n1 [Compound No 105, 3-[3-(2-allyl-2H-tetrazol-5-yl)-4-chlorophenyl]-1-methyl-6-(trifluoromethyl)-2,4(1H,3H)-pyrimidinedione] | 116 °C
Cn1c(C(F)(F)F)cc(=O)n(-c2cc(-c3nc4ccccc4s3)c(Cl)cc2Cl)c1=O [Compound No 123, 3-[5-(1,3-benzothiazol-2-yl)-2,4-dichlorophenyl]-1-methyl-6-(trifluoromethyl)-2,4(1H,3H)-pyrimidinedione] | 195 °C
COC(=O)Cn1nnnc1-c1cc(-n2c(=O)cc(C(F)(F)F)n(C)c2=O)ccc1Cl [Compound No 18, methyl (5-{2-chloro-5-[1,2,3,6-tetrahydro-3-methyl-2,6-dioxo-4-(trifluoromethyl)pyrimidin-1-yl]phenyl}-1H-tetrazol-1-yl)acetate] | 130 °C
Cn1c(C(F)(F)F)cc(=O)n(-c2cc(-c3nc4ccccc4s3)c(Cl)cc2F)c1=O [Compound No 119, 3-[5-(1,3-benzothiazol-2-yl)-4-chloro-2-fluorophenyl]-1-methyl-6-(trifluoromethyl)-2,4(1H,3H)-pyrimidinedione] | 211 °C
CCOC(=O)c1sc(-c2cc(-n3c(=O)cc(C(F)(F)F)n(C)c3=O)ccc2Cl)nc1C [Compound No 131, ethyl 2-{2-chloro-5-[1,2,3,6-tetrahydro-3-methyl-2,6-dioxo-4-(trifluoromethyl)pyrimidin-1-yl]phenyl}-4-methyl-1,3-thiazole-5-carboxylate] | 200 °C
Cc1nc(COc2cc(-n3c(=O)cc(C(F)(F)F)n(C)c3=O)c(Cl)cc2Cl)no1 [Compound No 112, 3-{2,4-dichloro-5-[(5-methyl-1,2,4-oxadiazol-3-yl)methoxy]phenyl}-1-methyl-6-(trifluoromethyl)-2,4(1H,3H)-pyrimidinedione] | 167 °C
COC(=O)/C=C(\COc1cc(-n2c(=O)cc(C(F)(F)F)n(C)c2=O)c(Cl)cc1Cl)OC [Compound No 3, methyl (2E)-4-{2,4-dichloro-5-[1,2,3,6-tetrahydro-3-methyl-2,6-dioxo-4-(trifluoromethyl)pyrimidin-1-yl]phenoxy}-3-methoxybut-2-enoate] | 116 °C
CCn1nnc(COc2cc(-n3c(=O)cc(C(F)(F)F)n(C)c3=O)c(F)cc2Cl)n1 [Compound No 8, 3-{4-chloro-2-fluoro-5-[(2-ethyl-2H-tetrazol-5-yl)methoxy]phenyl}-1-methyl-6-(trifluoromethyl)-2,4(1H,3H)-pyrimidinedione] | 126 °C
COCn1nnc(-c2cc(-n3c(=O)cc(C(F)(F)F)n(C)c3=O)ccc2Cl)n1 [Compound No 101, 3-{4-chloro-3-[2-(methoxymethyl)-2H-tetrazol-5-yl]phenyl}-1-methyl-6-(trifluoromethyl)-2,4(1H,3H)-pyrimidinedione] | 80 °C
CC(C)n1nnc(-c2cc(-n3c(=O)cc(C(F)(F)F)n(C)c3=O)ccc2Cl)n1 [Compound No 134, 3-[4-chloro-3-(2-isopropyl-2H-tetrazol-5-yl)phenyl]-1-methyl-6-(trifluoromethyl)-2,4(1H,3H)-pyrimidinedione] | 147 °C
CCn1nnnc1COc1cc(-n2c(=O)cc(C(F)(F)F)n(C)c2=O)c(F)cc1Cl [Compound No 9, 3-{4-chloro-2-fluoro-5-[(1-ethyl-1H-tetrazol-5-yl)methoxy]phenyl}-1-methyl-6-(trifluoromethyl)-2,4(1H,3H)-pyrimidinedione] | 60 °C
Cn1c(C(F)(F)F)cc(=O)n(-c2ccc(Cl)c(-c3nnn(C(C)(C)C)n3)c2)c1=O [Compound No 118, 3-[3-(2-tert-butyl-2H-tetrazol-5-yl)-4-chlorophenyl]-1-methyl-6-(trifluoromethyl)-2,4(1H,3H)-pyrimidinedione] | 154 °C
Cn1c(C(F)(F)F)cc(=O)n(-c2cc(OCc3nnn[nH]3)c(Cl)cc2F)c1=O [Compound No 7, 3-[4-chloro-2-fluoro-5-(tetrazol-5-ylmethoxy)phenyl]-1-methyl-6-(trifluoromethyl)-2,4(1H,3H)-pyrimidinedione] | 82 °C
Cc1ccc2nc(-c3cc(-n4c(=O)cc(C(F)(F)F)n(C)c4=O)c(Cl)cc3Cl)oc2c1 [Compound No 124, 3-[2,4-dichloro-5-(6-methyl-1,3-benzoxazol-2-yl)phenyl]-1-methyl-6-(trifluoromethyl) 2,4(1H,3H)-pyrimidinedione] | 200 °C
